BindingDB's records for patent US20240190824 (Ono Pharmaceutical Co., 2024)

Molecular target: T1, Potassium channel subfamily K member 2 (Homo sapiens, UniProt O95069)
T1 sequence (O95069 whole entry): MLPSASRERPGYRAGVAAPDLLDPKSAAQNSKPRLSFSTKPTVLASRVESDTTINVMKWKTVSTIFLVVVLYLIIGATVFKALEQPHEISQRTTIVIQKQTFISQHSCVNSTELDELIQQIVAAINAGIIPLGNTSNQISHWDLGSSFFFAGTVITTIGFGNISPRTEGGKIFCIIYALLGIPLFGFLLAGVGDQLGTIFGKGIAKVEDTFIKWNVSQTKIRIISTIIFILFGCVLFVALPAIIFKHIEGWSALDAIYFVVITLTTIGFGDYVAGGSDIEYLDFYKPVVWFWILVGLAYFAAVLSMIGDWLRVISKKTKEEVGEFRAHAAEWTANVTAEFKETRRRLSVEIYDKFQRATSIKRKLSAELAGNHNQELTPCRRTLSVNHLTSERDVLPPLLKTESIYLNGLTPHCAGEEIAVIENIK
Test: Thallium flux assay

Cc1cc(C#Cc2ccccc2)cc(F)c1NC(=O)c1cc(NC(=O)OC(C)(C)C)ccc1Cl [US20240190824, Compound 29] and CC(C)(C)OC(=O)Nc1ccc(Cl)c(C(=O)Nc2c(F)cc(C#Cc3ccccc3)cc2F)c1 [US20240190824, Compound 30] are within 1.5-fold of each other in IC50: 210 nM for the first, 220 nM for the second.

Cc1cc(C#Cc2cccc(F)c2)nc(C)c1NC(=O)c1cc(NC(=O)OC(C)(C)C)ccc1Cl [US20240190824, Compound 11] and Cc1cc(COc2ccc(Cl)c(C(=O)Nc3ncc(C#Cc4ccccc4)cc3C)c2)on1 [US20240190824, Compound 83] are within 1.5-fold of each other in IC50: 410 nM for the first, 390 nM for the second.

In the case of Cc1cc(C#Cc2ccccc2)cnc1NC(=O)c1cc(OCC2CCOC2)ccc1Cl (stereo unspecified) [US20240190824, Compound 85], the IC50 is reported as 490 nM.

Molecular target: T1, Potassium channel subfamily K member 2
Test: TREK-1 Manual Patch Clamp (hMPC) assay
Procedure: TBDCHO-K1 cells stably expressing human TREK-1 or HEK293 cells stably expressing human TREK-2 are plated on glass coverslips, and voltage clamped in the whole-cell configuration of the patch clamp technique. Cells were voltage clamped at a holding potential of −80 mV and the stepped to 0 mV for 500 msec. The voltage was subsequently ramped from −120 mV to +80 mV over a 500 msec duration. This step-ramp protocol was repeated every 10 sec.

Cc1cc(C#Cc2cccc(F)c2)nc(C)c1NC(=O)c1cc(NC(=O)OC(C)(C)C)ccc1Cl [US20240190824, Compound 11] showed an IC50 of 32 nM.
